Measured values published in patent US11492335B2, “Aryl or heteroaryl triazolone derivatives or salts thereof, or pharmaceutical compositions comprising the same” (YUHAN CORPORATION, priority 2018, dated 2022).
Where a name gives a salt, the structure may show the parent alone.

Experiments:
Format in all cases: biochemical
[1] = target: T1, recombinant human MAO-B (monoamine oxidase-B) (Homo sapiens, UniProt P27338); test: Activity on recombinant human MAO-B, Amplex Red method, 1 mM benzylamine substrate; conditions: 1 mM benzylamine, read-out: Inhibitory Activity (IC50, nM) MAO-B
T1 construct: purchased Sigma-Aldrich
T1 sequence (P27338 1-520): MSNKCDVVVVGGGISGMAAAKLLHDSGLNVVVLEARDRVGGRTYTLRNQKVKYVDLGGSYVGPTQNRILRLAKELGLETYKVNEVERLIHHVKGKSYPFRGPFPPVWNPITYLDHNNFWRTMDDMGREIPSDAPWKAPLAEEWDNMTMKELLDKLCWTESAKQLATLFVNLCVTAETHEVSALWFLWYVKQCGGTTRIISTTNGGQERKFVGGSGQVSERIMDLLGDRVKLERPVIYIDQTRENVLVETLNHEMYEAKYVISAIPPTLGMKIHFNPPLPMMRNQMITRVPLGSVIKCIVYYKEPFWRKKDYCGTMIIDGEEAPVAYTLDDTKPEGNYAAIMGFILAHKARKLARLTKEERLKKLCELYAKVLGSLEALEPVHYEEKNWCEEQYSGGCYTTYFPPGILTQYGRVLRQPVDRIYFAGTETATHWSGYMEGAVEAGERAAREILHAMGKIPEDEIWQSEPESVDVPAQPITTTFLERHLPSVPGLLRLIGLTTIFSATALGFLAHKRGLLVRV
How it was run: (§1)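 Amplex Red/HRP coupled read-out of H2O2 with 0.5 mM tyramine for MAO-A or 1 mM benzylamine for MAO-B, following a 30-min compound–enzyme preincubation at 37° C. IC50 from percent inhibition of signal rate relative to uninhibited control.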

[2] = target: T2, recombinant human DAO (diamine oxidase) (Homo sapiens, UniProt P19801); test: Activity on recombinant human DAO, Amplex Red method, 1 mM putrescine substrate; conditions: recombinant human DAO, 1 mM putrescine; * = between 10 and 100 nM, ** = between 300 and 1000 nM; read-out: Inhibitory Activity (IC50, nM) DAO
T2 construct: purchased R&D systems
T2 sequence (P19801 20-751): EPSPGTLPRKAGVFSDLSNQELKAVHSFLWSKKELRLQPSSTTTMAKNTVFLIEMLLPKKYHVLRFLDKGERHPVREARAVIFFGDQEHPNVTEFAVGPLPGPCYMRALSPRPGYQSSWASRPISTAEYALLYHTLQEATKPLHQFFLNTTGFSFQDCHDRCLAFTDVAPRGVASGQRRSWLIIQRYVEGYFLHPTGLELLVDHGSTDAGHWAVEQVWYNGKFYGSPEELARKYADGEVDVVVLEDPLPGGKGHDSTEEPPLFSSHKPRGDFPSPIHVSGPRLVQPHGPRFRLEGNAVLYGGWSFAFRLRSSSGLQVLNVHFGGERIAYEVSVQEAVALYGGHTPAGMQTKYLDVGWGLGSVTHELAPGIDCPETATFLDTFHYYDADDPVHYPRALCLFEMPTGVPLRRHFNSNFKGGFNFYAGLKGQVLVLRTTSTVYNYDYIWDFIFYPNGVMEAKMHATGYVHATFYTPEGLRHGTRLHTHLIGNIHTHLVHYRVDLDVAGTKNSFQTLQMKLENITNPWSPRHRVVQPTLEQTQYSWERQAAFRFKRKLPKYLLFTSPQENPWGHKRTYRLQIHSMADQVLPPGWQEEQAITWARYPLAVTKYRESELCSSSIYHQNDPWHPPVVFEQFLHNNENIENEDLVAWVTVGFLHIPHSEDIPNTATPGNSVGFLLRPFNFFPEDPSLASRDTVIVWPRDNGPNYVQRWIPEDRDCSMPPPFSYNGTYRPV
How it was run: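 Inhibition of recombinant human DAO (diamine oxidase, R&D systems) was assessed with the Amplex Red Hydrogen Peroxide Assay Kit. Hydrogen peroxide produced from 1 mM putrescine was detected through an HRP-coupled reaction that converts Amplex Red into fluorescent resorufin, read at 544 nm excitation and 590 nm emission. IC50 values came from four-parameter logistic fits in GraphPad Prism.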

recombinant human VAP-1 = target: T3, recombinant human VAP-1 (Homo sapiens, UniProt Q16853); test: Activity on recombinant human VAP-1, Amplex Red HRP-coupled hydrogen peroxide assay, benzylamine substrate; conditions: recombinant human VAP-1, benzylamine substrate, 30 min preincubation at 37° C.; read-out: Inhibitory Activity (IC50, nM) human VAP-1
T3 construct: purchased R&D systems
T3 sequence (Q16853 1-763): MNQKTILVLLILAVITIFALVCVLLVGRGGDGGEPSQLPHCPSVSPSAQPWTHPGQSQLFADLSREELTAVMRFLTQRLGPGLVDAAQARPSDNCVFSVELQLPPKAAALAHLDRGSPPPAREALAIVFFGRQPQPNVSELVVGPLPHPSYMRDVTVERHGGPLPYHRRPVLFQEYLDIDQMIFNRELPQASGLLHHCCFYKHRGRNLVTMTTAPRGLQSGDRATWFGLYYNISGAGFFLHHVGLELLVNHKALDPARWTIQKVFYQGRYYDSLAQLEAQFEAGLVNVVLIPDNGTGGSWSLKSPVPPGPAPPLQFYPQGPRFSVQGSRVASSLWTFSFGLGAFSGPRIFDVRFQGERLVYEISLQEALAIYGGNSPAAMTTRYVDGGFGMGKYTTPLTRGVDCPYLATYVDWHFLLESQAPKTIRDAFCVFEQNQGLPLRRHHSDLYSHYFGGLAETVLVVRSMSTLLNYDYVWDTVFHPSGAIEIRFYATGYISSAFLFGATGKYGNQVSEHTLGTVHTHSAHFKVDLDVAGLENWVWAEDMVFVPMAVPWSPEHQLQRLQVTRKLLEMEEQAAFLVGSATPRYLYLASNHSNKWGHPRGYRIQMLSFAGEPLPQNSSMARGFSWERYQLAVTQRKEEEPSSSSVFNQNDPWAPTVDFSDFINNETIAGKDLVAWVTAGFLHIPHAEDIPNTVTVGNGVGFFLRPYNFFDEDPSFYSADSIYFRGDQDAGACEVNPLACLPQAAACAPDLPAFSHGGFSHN
How it was run: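 Dose-response IC50 determined from reduction in resorufin signal rate (544/590 nm, 1-2 h), with 30 min compound preincubation at 37 °C and 1 mM benzylamine as substrate.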

[3] = target: T4, recombinant human MAO-A (monoamine oxidase-A) (Homo sapiens, UniProt P21397); test: Activity on recombinant human MAO-A, Amplex Red method, 0.5 mM tyramine substrate; conditions: 0.5 mM tyramine, read-out: Inhibitory Activity (IC50, nM) MAO-A
T4 construct: purchased Sigma-Aldrich
T4 sequence (P21397 1-527): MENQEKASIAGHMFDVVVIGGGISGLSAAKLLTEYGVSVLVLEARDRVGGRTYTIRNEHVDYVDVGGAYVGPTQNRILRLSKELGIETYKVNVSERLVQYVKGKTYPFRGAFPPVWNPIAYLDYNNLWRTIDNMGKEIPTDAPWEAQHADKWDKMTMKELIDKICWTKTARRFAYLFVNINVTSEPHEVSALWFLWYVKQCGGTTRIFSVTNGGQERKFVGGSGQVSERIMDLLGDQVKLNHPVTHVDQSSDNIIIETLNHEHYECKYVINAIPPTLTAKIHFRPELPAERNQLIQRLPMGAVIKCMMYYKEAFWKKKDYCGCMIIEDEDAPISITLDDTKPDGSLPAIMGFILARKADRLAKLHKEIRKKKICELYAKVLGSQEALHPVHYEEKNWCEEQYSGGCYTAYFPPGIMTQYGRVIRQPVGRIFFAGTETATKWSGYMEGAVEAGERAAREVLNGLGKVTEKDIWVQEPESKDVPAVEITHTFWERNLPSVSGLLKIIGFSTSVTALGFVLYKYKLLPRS
How it was run: as §1

Structure (SMILES)	IC50 [1] [nM]	IC50 [2] [nM]	IC50 (recombinant human VAP-1) [nM]	IC50 [3] [nM]
Cc1cc(-c2ccc(S(C)(=O)=O)cc2)cnc1-n1cnn(C/C(=C/F)CN)c1=O [Example 133, 2-[(2E)-2-(aminomethyl)-3-fluoroprop-2-en-1-yl]-4-{3-methyl-5-[4-(methylsulfonyl)phenyl]pyridin-2-yl}-2,4-dihydro-3H-1,2,4-triazol-3-one hydrochloride]	> 10000	220	0.84	> 100000
CC(=O)Nc1ccc(-c2cnc(-n3cnn(C/C(=C/F)CN)c3=O)c(C)c2)cc1 [Example 134, N-[4-(6-{1-[(2E)-2-(aminomethyl)-3-fluoroprop-2-en-1-yl]-5-oxo-1,5-dihydro-4H-1,2,4-triazol-4-yl}-5-methylpyridin-3-yl)phenyl]acetamide hydrochloride]	> 10000	1200	0.55	> 100000
Cc1cc(-c2cccc(-c3nnc[nH]3)c2)cnc1-n1cnn(C/C(=C/F)CN)c1=O [Example 137, 2-[(2E)-2-(aminomethyl)-3-fluoroprop-2-en-1-yl]-4-{3-methyl-5-[3-(4H-1,2,4-triazol-3-yl)phenyl]pyridin-2-yl}-2,4-dihydro-3H-1,2,4-triazol-3-one]	3790	120	0.5	34000
Cc1cc(-c2ccc(-c3cnon3)cc2)cnc1-n1cnn(C/C(=C/F)CN)c1=O [Example 138, 2-[(2E)-2-(aminomethyl)-3-fluoroprop-2-en-1-yl]-4-{3-methyl-5-[4-(1,2,5-oxadiazol-3-yl)phenyl]pyridin-2-yl}-2,4-dihydro-3H-1,2,4-triazol-3-one hydrochloride]	1100	240	0.7	84000
Cc1cc(-c2ccc(-c3ncon3)cc2)cnc1-n1cnn(C/C(=C/F)CN)c1=O [Example 139, 2-[(2E)-2-(aminomethyl)-3-fluoroprop-2-en-1-yl]-4-{3-methyl-5-[4-(1,2,4-oxadiazol-3-yl)phenyl]pyridin-2-yl}-2,4-dihydro-3H-1,2,4-triazol-3-one]	394	370	0.53	> 100000
Cc1cc(-c2cccc(-c3ncon3)c2)cnc1-n1cnn(C/C(=C/F)CN)c1=O [Example 140, 2-[(2E)-2-(aminomethyl)-3-fluoroprop-2-en-1-yl]-4-{3-methyl-5-[3-(1,2,4-oxadiazol-3-yl)phenyl]pyridin-2-yl}-2,4-dihydro-3H-1,2,4-triazol-3-one]	3100	13000	0.79	3400
Cc1cc(-c2ccc(-c3noc(C4CC4)n3)cc2)cnc1-n1cnn(C/C(=C/F)CN)c1=O [Example 141, 2-[(2E)-2-(aminomethyl)-3-fluoroprop-2-en-1-yl]-4-{5-[4-(5-cyclopropyl-1,2,4-oxadiazol-3-yl)phenyl]-3-methylpyridin-2-yl}-2,4-dihydro-3H-1,2,4-triazol-3-one hydrochloride]	7090	110	0.88	> 100000

Next, values leading:

IC50 [1] [nM]	IC50 [2] [nM]	IC50 (recombinant human VAP-1) [nM]	IC50 [3] [nM]	Structure (SMILES)
4720	57	0.63	> 100000	Cc1cc(-c2ccc(-c3noc(C(C)C)n3)cc2)cnc1-n1cnn(C/C(=C/F)CN)c1=O [Example 142, 2-[(2E)-2-(aminomethyl)-3-fluoroprop-2-en-1-yl]-4-(3-methyl-5-{4-[5-(propan-2-yl)-1,2,4-oxadiazol-3-yl]phenyl}pyridin-2-yl)-2,4-dihydro-3H-1,2,4-triazol-3-one hydrochloride]
5340	12	0.43	112000	Cc1cc(-c2cccc(-c3noc(C(C)C)n3)c2)cnc1-n1cnn(C/C(=C/F)CN)c1=O [Example 143, 2-[(2E)-2-(aminomethyl)-3-fluoroprop-2-en-1-yl]-4-(3-methyl-5-{3-[5-(propan-2-yl)-1,2,4-oxadiazol-3-yl]phenyl}pyridin-2-yl)-2,4-dihydro-3H-1,2,4-triazol-3-one hydrochloride]
> 10000	13000	0.9	> 100000	Cc1cc(-c2ccc(N3CCNCC3)cc2)cnc1-n1cnn(C/C(=C/F)CN)c1=O [Example 145, 2-[(2E)-2-(aminomethyl)-3-fluoroprop-2-en-1-yl]-4-{3-methyl-5-[4-(piperazin-1-yl)phenyl]pyridin-2-yl}-2,4-dihydro-3H-1,2,4-triazol-3-one hydrochloride]
> 10000	17000	0.7	> 100000	Cc1cc(-c2ccc(C(=O)N3CCOCC3)cc2)cnc1-n1cnn(C/C(=C/F)CN)c1=O [Example 146, 2-[(2E)-2-(aminomethyl)-3-fluoroprop-2-en-1-yl]-4-{3-methyl-5-[4-(morpholin-4-ylcarbonyl)phenyl]pyridin-2-yl}-2,4-dihydro-3H-1,2,4-triazol-3-one hydrochloride]
